Assays:
[1] = system: WT murine PACs; assay: Chondrocyte gene expression in response to succinate treatment (qPCR); type: cell-based, mouse
Protocol: (§1) FIG. 13A, FIG. 13B, FIG. 13C, FIG. 13D, FIG. 13E, FIG. 13F, FIG. 13G, FIG. 13H, FIG. 13I, FIG. 13J, FIG. 13K, FIG. 13L, FIG. 13M and FIG. 13N depict graphs showing mitochondria function and cellular homeostasis in Dnmt3b LOF chondrocytes. Primary articular chondrocytes were isolated from 2 mo Dnmt3b^f/f mice and infected with Ad5-Cre (Dnmt3b LOF) or Ad5-GFP (Ctrl) for 48 h. (FIG. 13A, FIG. 13B, FIG. 13C) Mitochondrial respiration was measured by the Seahorse XF Extracellular Flux Analyzer. Basal respiration and maximal respiration, as measured by the oxygen consumption rate (OCR) are shown. (FIG. 13D, FIG. 13E, FIG. 13F) TCA metabolite (succinate, fumarate) and NADH analysis by HPLC-MS. (FIG. 13G, FIG. 13H, FIG. 13I) Mitochondrial metabolism analysis was measured in 2 mo WT cells treated with either 1 mM diethyl succinate or vehicle for 48 h by the Seahorse XF Extracellular Flux Analyzer. (FIG. 13J) Chondrocyte gene expression in response to succinate treatment was analyzed by qPCR. (FIG. 13K, FIG. 13L, FIG. 13M) Mitochondrial respiration analysis in BMP-2-treated 2 mo WT chondrocytes in the presence or absence antimycin A+rotenone for 48 h. (FIG. 13N) Analysis of chondrocyte gene expression in response to BMP-2 treatment+/−antimycin A+rotentone (0.1 μM).
Real-time PCR and western blot. RNA was isolated from ATDC-5 chondrocytes or primary articular chondrocytes using RNeasy Mini kit (Qiagen). cDNA synthesis and real-time RT-PCR was performed according to manufacturer's instructions. Western blot analyses were conducted on the protein of lysates from either ATDC-5 cells or primary (murine or human) articular chondrocytes. The following primary antibodies were used: pSmad1/5 (Cell Signaling technology Inc., 1:500), pSmad2 (Cell Signaling technology Inc., 1:1000), Smad1/5/8 (Cell Signaling technology Inc., 1:1000), Smad2 (Cell Signaling technology Inc., 1:1000), DNMT3A (LSBio, 1:1000), DNMT3B (LSBio, 1:1000), FLAG (Life technology, 1:1000) and β-actin (Sigma, 1:2000).

[2] = system: Primary articular chondrocytes from 2 mo WT mice; assay: Succinate concentration assay; type: cell-based, mouse; conditions: 1 mM diethyl succinate, 48 h
Protocol: FIG. 15 depicts a graph showing cellular succinate levels in murine chondrocytes. Primary articular chondrocytes from 2 mo WT mice were treated with 1 mM diethyl succinate or vehicle for 48 h.
Succinate concentration assay. Primary articular chondrocytes isolated from 2 mo WT mice were treated with vehicle or diethylsuccinate (1 mM) for 48 h. Intracellular succinate concentration was measured using the succinate colorimetric assay kit following the manufacturer's instruction (Sigma, #MAK184-1KT).

[3] = system: WT murine PACs; assay: Mitochondria stress test (Seahorse XF Extracellular Flux Analyzer) after succinate treatment; type: cell-based, mouse; conditions: 1 mM diethyl succinate, 48 h
Protocol: as §1, with “(FIG. 13N) Analysis of chondrocyte gene expression in response to BMP-2 treatment+/−antimycin A+rotentone (0.1 μM).” left out
Metabolite analysis and mitochondria stress test. […] Metabolites were analyzed by LC-MS/MS as previously described^60. […] At the end of the assays, protein concentrations were measured for normalization.

[4] = system: Dnmt3b LOF chondrocytes; assay: Vigabatrin treatment of Dnmt3b LOF primary articular chondrocytes, hypertrophic marker expression; type: cell-based, mouse
Protocol: FIG. 23A, FIG. 23B and FIG. 23C depict ablation of Dnmt3b in articular chondrocytes (ACs). Primary Acs from Dnmt3b^f/f mice were infected with Ad5-Cre or Ad-GFP for 48 hr and cultured for a further 48 hr with or without vigabatrin (500μM).
To determine if this effect is dependent upon increased Abat expression, experiments were performed using vigabatrin to inhibit Abat activity in articular chondrocytes. […] Work will comprehensively investigate the role of Abat in controlling both metabolism and hypertrophic/catabolic responses in articular chondrocytes, and define its role in the development of OA.

[5] = rodents, within the proposed dosage range; literature study (99); cited from earlier work
[6] = system: Dnmt3b promoter; assay: Dnmt3b promoter luciferase assay; type: cell-based, mouse; conditions: ATDC-5 cells, IL-1β 1 ng/ml, 24 h, versus untreated control
Source text: (§2) FIG. 4A, FIG. 4B, FIG. 4C, FIG. 4D, FIG. 4E and FIG. 4F depict sequences, graphs and a nucleic acid gel and immunoblot showing IL-1β regulation of Dnmt3b is mediated in part by NF-κB. (FIG. 4A) Sequence alignment and conservation of an NF-κB binding site (red) in the promoter region of the Dnmt3b gene of different species. Mouse—SEQ ID NO:1; Human—SEQ ID NO:2; Dog; SEQ ID NO:3; Horse—SEQ ID NO:4. […] Reduced luciferase activity is attenuated when ATDC-5 cells were transfected with a reporter plasmid containing a mutated NF-κB binding site ([…]; SEQ ID NO:5). […] (FIG. 4E, FIG. 4F) Dnmt3b mRNA and protein levels were reduced in murine WT primary articular chondrocytes (extracted from 3 mo murine knee joints) following IL-1β induction (48 h).
Dnmt3b promoter luciferase assay. ATDC-5 cells were transfected with a pGL4 luciferase plasmid containing cDNA encoding 1 kb of the murine Dnmt3b promoter using X-tremeGENE transfection reagents (Roche, #06366236001). A Dnmt3b promoter construct containing mutations in the predicted NFκB binding site was also transfected into an additional set of ATDC-5 cells. All transfected cells were then treated with IL-1β (1 ng/ml) for 24 h before performing the luciferase assay.

[7] = system: human primary articular chondrocytes; assay: IL-1β treatment of human primary articular chondrocytes, gene and protein expression; type: cell-based
Source text: FIG. 1A, FIG. 1B, FIG. 1C, FIG. 1D, FIG. 1E, FIG. 1F, FIG. 1G, FIG. 1H, FIG. 1I, FIG. 1J, FIG. 1K, FIG. 1L and FIG. 1M depict images, graphs and an immunoblot showing Dnmt3b expression in murine and human knee joint cartilage. (FIG. 1A, FIG. 1B) Dnmt3a is not expressed in chondrocytes from 3 mo WT articular cartilage [(FIG. 1B) represents a magnified image of the boxed region in (FIG. 1A)]. (FIG. 1C) Dnmt3a expression in pancreas tissue (positive control). (FIG. 1D, FIG. 1E, FIG. 1F) Robust expression of Dnmt3b in chondrocytes of 3 mo WT articular cartilage and lower expression in underlying growth plate cartilage; [(FIG. 1E) represents a magnified image of the dashed boxed area of articular cartilage in (FIG. 1D); (FIG. 1F) represents a magnified image of the solid boxed area of growth plate cartilage in (FIG. 1D)]. Dnmt3b expression is also shown in: (FIG. 1G) 3 mo versus 27 mo WT murine knee articular cartilage; (FIG. 1H) 14 wk old murine articular cartilage following MLI surgery compared to cartilage from sham control knees; (FIG. 1I) 14 wk murine articular cartilage in mice fed a high fat diet (HFD) compared to controls (Ctrl) fed a normal diet. (FIG. 1J) Two representative images showing DNMT3B expression in human healthy articular cartilage or osteoarthritic cartilage tissue sections. (FIG. 1K) Reduced DNMT3B expression in human primary OA chondrocytes compared to healthy chondrocytes). […] All scale bars, 100 μm.
FIG. 3A and FIG. 3B depict graphs showing altered anabolic and catabolic gene expression in IL-1β-treated human primary chondrocytes. Reduced COL2A1 (FIG. 3A) and increased MMP13 (FIG. 3B) expression following IL-1β treatment (48 h) of human primary articular chondrocytes isolated from total knee replacement surgeries.
Full thickness sections of human articular cartilage were removed from the femoral condyles and tibial plateaus of specimens obtained following total knee replacement surgery, diced into 2 mm cubes and digested in sterile spinner flasks for 90 min at 37° C. in pronase digestion buffer [DMEM/F12 (Gibco); 5% FBS (Atlanta Biologicals), 2% penicillin/streptomycin (Gibco) and 0.4% pronase (Roche)]. Following washes in HBSS (Gibco), tissue was further digested in collagenase digestion buffer at 37° C. [DMEM/F12; 5% FBS; 2% penicillin/streptomycin; 0.035% collagenase P (Roche)] for 14-16 hr. Cells were collected, filtered through 70 μm cell strainers (VWR) and plated at a density of 100,000 cells/cm^2. After 24 hr, chondrocytes were treated with IL-1β (10 ng/ml; Gibco) for 48 hr. Total RNA was collected using the Total RNA prep kit (Norgen Biotek) and cDNA was synthesized using Superscript RT II (Life Technologies).
Real-time PCR and western blot. […]

[8] = system: murine WT primary articular chondrocytes; assay: IL-1β induction of murine WT primary articular chondrocytes, Dnmt3b expression; type: cell-based, mouse; conditions: IL-1β induction 48 h
Source text: as §2
Real-time PCR and western blot. RNA was isolated from ATDC-5 chondrocytes or primary articular chondrocytes using RNeasy Mini kit (Qiagen). cDNA synthesis and real-time RT-PCR was performed according to manufacturer's instructions. Western blot analyses were conducted on the protein of lysates from either ATDC-5 cells or primary (murine or human) articular chondrocytes. […]

[9] = system: primary articular chondrocytes; assay: Cytokine-induced chondrocyte hypertrophy measured by ALP activity; type: cell-based, mouse; conditions: cytokine treatment
Protocol: FIG. 24 depicts Dnmt3b gain-of-function attenuates IL-1β-induced chondrocyte hypertrophy. Primary ACs from 2 mo Dnmt3b GOF mice were treated with vehicle or doxycycline (10 μg/ml) for 24 hr. Medium without or with IL-1β (1 ng/ml) was added for 48 hr and ALP staining performed using NBT/BCIP substrate solution.
Hypertrophic characteristics, as measured by ALP activity, were induced in primary articular chondrocytes by treatment with either IL-1β or TNF-α. Dnmt3b GOF was induced by transfecting a plasmid expressing full-length Flag-tagged Dnmt3b cDNA. Western blot confirmed protein over-expression (data not shown). […] Similar results were shown in the TNF-α experiment (results not shown)

[10] = Abat inhibition with vigabatrin

Question: Which Col2a1 expression [1] does the source give for `CCOC(=O)CCC(=O)OCC` [diethyl succinate] here?
Answer: decreased

Question: What about the Mmp13 expression [1] of the same molecule?
Answer: increase

Question: What about the Runx2 expression [1] of the same molecule?
Answer: increase

Question: What about the cellular succinate levels [2] of the same molecule?
Answer: Increased levels of cellular succinate

Question: What about the “basal respiration (OCR)” value [3] of the same molecule?
Answer: increased

Question: And the “maximal respiration (OCR)” value [3]?
Answer: increased

Question: Which “Col10a1 expression in Dnmt3b LOF chondrocytes” value [4, 10] does the source give for `C=CC(N)CCC(=O)O` (stereo not drawn) [vigabatrin] here?
Answer: attenuates the increased expression

Question: And the “Mmp13 expression in Dnmt3b LOF chondrocytes” value [4, 10]?
Answer: attenuates the increased expression

Question: What about the “Runx2 expression in Dnmt3b LOF chondrocytes” value [4, 10] of the same molecule?
Answer: attenuates the increased expression

Question: And the “catabolic responses in chondrocytes” value ([4]; in vitro administration)?
Answer: can block catabolic responses

Question: What about the “hypertrophic gene expression induced by Dnmt3b LOF” value ([4]; vigabatrin 500μM, 48 hr, primary ACs from Dnmt3b f/f mice infected with Ad5-Cre) of the same molecule?
Answer: partially attenuated

Question: And the side effects [5]?
Answer: did not report any side effects

Question: For IL-1β: pro-inflammatory cytokine, which “luciferase expression of Dnmt3b promoter reporter” value [6] is on record?
Answer: Reduced luciferase expression

Question: What about the “DNMT3B mRNA expression” value ([7]; IL-1β 10 ng/ml, 48 hr) of the same molecule?
Answer: decreased

Question: And the DNMT3B protein expression ([7]; IL-1β 10 ng/ml, 48 hr)?
Answer: decreased

Question: And the COL2A1 expression ([7]; IL-1β treatment 48 h)?
Answer: Reduced

Question: What about the MMP13 expression ([7]; IL-1β treatment 48 h) of the same molecule?
Answer: increased

Question: And the “Dnmt3b mRNA level” value [8]?
Answer: reduced

Question: What about the Dnmt3b protein level [8] of the same molecule?
Answer: reduced

Question: And the “hypertrophic characteristics, as measured by ALP activity” value [9]?
Answer: induced

Question: Which “hypertrophic characteristics, as measured by ALP activity” value [9] does the source give for TNF-α here?
Answer: induced

Reference: patent publication US10123983B2, “DNA methyltransferases for the treatment and prevention of arthritis” (Washington University, priority 2015, dated 2018)
